ChEMBL document CHEMBL4814063, “Discovery of Diaminopyrimidine Carboxamide HPK1 Inhibitors as Preclinical Immunotherapy Tool Compounds” (ACS Med Chem Lett, 2021)
In brackets after ≈: the same amount, converted by molar mass.

Key:
[1] = Volume of distribution in Wistar Han rat at 0.1 mg/kg, iv; format: ADME, organism-based; settings: in vivo
[2] = Clearance in Wistar Han rat at 0.1 mg/kg, iv; format: ADME, organism-based; settings: in vivo
[3] = Unbound clearance in Wistar Han rat at 0.1 mg/kg, iv; format: ADME, organism-based; settings: in vivo
[4] = Fraction unbound clearance in C57BL/6 mouse at 10 mg/kg, po or 1 mg/kg, iv; format: ADME, organism-based; settings: in vivo
[5] = MRT in Wistar Han rat at 0.1 mg/kg, iv; format: ADME, organism-based; settings: in vivo
[6] = Apparent permeability in dog MDCK-II cells; format: ADME, cell-based, Canis lupus familiaris
[7] = MRT in C57BL/6 mouse at 10 mg/kg, po or 1 mg/kg, iv; format: ADME, organism-based; settings: in vivo
[8] = Volume of distribution in C57BL/6 mouse at 10 mg/kg, po or 1 mg/kg, iv; format: ADME, organism-based; settings: in vivo
[9] = Oral bioavailability in C57BL/6 mouse at 10 mg/kg; format: ADME, organism-based; settings: in vivo
[10] = Clearance in C57BL/6 mouse at 10 mg/kg, po or 1 mg/kg, iv; format: ADME, organism-based; settings: in vivo
[11] = Solubility of compound at pH 7; format: physicochemical; settings: buffer
[12] = Solubility of compound at pH 2; format: physicochemical; settings: buffer
[13] = Metabolic stability in rat hepatocytes assessed as intrinsic clearance; format: ADME, cell-based, Hepatocyte
Dendritic cell [14] = assay: […] in human monocyte derived dendritic cell assessed as increase in TNF-alpha production incubated for 24 hrs by ELISA; format: functional, cell-based
Dendritic cell [15] = assay: […] in human monocyte derived dendritic cell assessed as increase in IL-6 production incubated for 24 hrs by ELISA; format: functional, cell-based
[16] = AUC in C57BL/6 mouse at 100 mg/kg, po measured after 8 hrs; format: ADME, organism-based; set-up: route oral, dose 100 mg/kg, time 8 hrs; settings: in vivo

| SMILES | Vd [1] [L/kg] | clearance [2] [mL/min/kg] | CL free [3] [mL/min/kg] | CL free [4] [mL/min/kg] | MRT [5] [min] | Papp [6] [×10⁻⁶ cm/s] | MRT [7] [min] | Vd [8] [L/kg] | bioavailability [9] [%] | clearance [10] [mL/min/kg] | solubility [11] [µM] | solubility [12] [µM] | CLint [13] [µL/min/1e6 cells] | AUC [16] [µM·h] | Activity (Dendritic cell [14]) | Activity (Dendritic cell [15]) |
| --- | --- | --- | --- | --- | --- | --- | --- | --- | --- | --- | --- | --- | --- | --- | --- | --- |
| COc1cc2c(cc1Nc1ncc(C(N)=O)c(Nc3ccccc3[C@H](C)OC)n1)CN(C)CC2 | 1.8 | 56 | 2057 | 2452 | 30 | 3.1 | 19.8 | 1 | 9 | 52 | – | – | – | – | – | – |
| COc1cc2c(cc1Nc1ncc(C)c(Nc3ccccc3)n1)CN(C)CC2 | – | – | – | – | – | – | – | – | – | – | 152 (≈ 57.1 µg/mL) | 179 (≈ 67.2 µg/mL) | – | – | – | – |
| COc1cc2c(cc1Nc1ncc(C(N)=O)c(NC3CCCC3)n1)CN(C)CC2 | – | – | – | – | – | 3.6 | – | – | – | – | 7 (≈ 2.78 µg/mL) | – | 28 | – | – | – |
| COc1cc2c(cc1Nc1ncc(C(N)=O)c(Nc3ccccc3CO)n1)CN(C)CC2 | 65 | 88 | 548 | 792 | 120 | 0.54 | 39.6 | 29 | 7.9 | 67 | – | – | – | 102 | – | – |

More lines, main results first:

| Vd [1] [L/kg] | clearance [2] [mL/min/kg] | CL free [3] [mL/min/kg] | CL free [4] [mL/min/kg] | MRT [5] [min] | Papp [6] [×10⁻⁶ cm/s] | MRT [7] [min] | Vd [8] [L/kg] | bioavailability [9] [%] | clearance [10] [mL/min/kg] | solubility [11] [µM] | solubility [12] [µM] | CLint [13] [µL/min/1e6 cells] | AUC [16] [µM·h] | SMILES | Activity (Dendritic cell [14]) | Activity (Dendritic cell [15]) |
| --- | --- | --- | --- | --- | --- | --- | --- | --- | --- | --- | --- | --- | --- | --- | --- | --- |
| – | – | – | – | – | – | – | – | – | – | 96 (≈ 41.2 µg/mL) | 157 (≈ 67.4 µg/mL) | – | – | COc1cc2c(cc1Nc1ncc(C(F)(F)F)c(Nc3ccccc3)n1)CN(C)CC2 | – | – |
| – | – | – | – | – | 2.12 | – | – | – | – | < 2 | – | 33 | – | COc1cc2c(cc1Nc1ncc(C(N)=O)c(Nc3ccccc3Br)n1)CN(C)CC2 | – | – |
| 2 | 28 | 1529 | 2170 | 78 | 2.9 | 28.8 | 61 | 13 | 30 | – | – | – | – | COc1cc2c(cc1Nc1ncc(C(N)=O)c(Nc3c(F)cccc3C(F)(F)F)n1)CN(C)CC2 | Dose-Dependent Effect | Dose-Dependent Effect |
| – | – | – | – | – | – | – | – | – | – | 147 (≈ 53.1 µg/mL) | 160 (≈ 57.8 µg/mL) | – | – | COc1cc2c(cc1Nc1nccc(Nc3ccccc3)n1)CN(C)CC2 | – | – |
| – | – | – | – | – | 2.78 | – | – | – | – | 9 (≈ 3.93 µg/mL) | – | 69 | – | COc1cc2c(cc1Nc1ncc(C(N)=O)c(Nc3c(C)cccc3F)n1)CN(C)CC2 | – | – |
| – | 19 | 415 | 2532 | 126 | 2.5 | 72 | – | 17 | 46 | 92 (≈ 37.2 µg/mL) | 166 (≈ 67.1 µg/mL) | 70 | – | COc1cc2c(cc1Nc1ncc(C(N)=O)c(Nc3ccccc3)n1)CN(C)CC2 | – | – |
